Results taken from US20210238598A1, “COMPOSITIONS, SYSTEMS, AND METHODS FOR BASE DIVERSIFICATION” (Pairwise Plants Services, Inc., priority 2020, published 2021).

Biological target: T1, APE1 (Homo sapiens, UniProt P27695)
T1 construct: endogenous in cells; host or cells: HEK293T (ATCC CRL-3216)
Assay: APE1 inhibitor effect on indels and base diversification by AID or pmCDA1 fused to Cas9 nickase (D10A), HTS
Type: cell-based
Details: HEK293T cells, 100 μM and 200 μM, 3d, FIG. 6
Protocol: APE1 was inhibited by using CRT0044876 (Scheme 1), which is a potent and well-known APE1 inhibitor.
To ascertain whether this compound improves base diversification profile, HEK293T cells were treated with AID or pmCDA1 fused to Cas9 nickase (D10A) in the presence of CRT0044876. After 3d, the cells were harvested and analyzed through high-throughput sequencing (HTS).

T1 sequence (P27695 whole entry): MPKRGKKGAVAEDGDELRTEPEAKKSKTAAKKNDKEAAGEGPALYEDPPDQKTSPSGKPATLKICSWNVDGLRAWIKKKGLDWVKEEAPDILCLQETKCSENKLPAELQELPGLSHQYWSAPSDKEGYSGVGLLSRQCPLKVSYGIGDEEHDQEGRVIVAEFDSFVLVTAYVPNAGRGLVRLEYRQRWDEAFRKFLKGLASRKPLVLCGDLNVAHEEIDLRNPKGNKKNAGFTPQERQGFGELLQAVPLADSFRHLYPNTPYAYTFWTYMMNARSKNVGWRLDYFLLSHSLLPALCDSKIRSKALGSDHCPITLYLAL

base diversification rate: some decrease | amount of indel generated (multiple target sites): significant decrease
SMILES: O=C(O)c1cc2cccc([N+](=O)[O-])c2[nH]1 [CRT0044876]
